In general, IC50 refers to the midpoint of a concentration-inhibition curve.

Inhibition and IC50 data for 17 compounds are collected here from paper PMC8251769, “Phosphonate as a Stable Zinc‐Binding Group for “Pathoblocker” Inhibitors of Clostridial Collagenase H (ColH)” (Chemmedchem, 2021).

One experiment deals with T1, MMP-8 (Homo sapiens, UniProt P22894).
T1 construct: gene MMP8; catalytic domain, AnaSpec
T1 sequence (P22894 100-262 limits assumed): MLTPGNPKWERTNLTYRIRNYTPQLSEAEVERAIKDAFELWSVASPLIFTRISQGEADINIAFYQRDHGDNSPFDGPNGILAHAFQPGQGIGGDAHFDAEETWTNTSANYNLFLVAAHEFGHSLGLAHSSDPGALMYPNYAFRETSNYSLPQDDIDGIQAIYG
The experiment can be described thus: SensoLyte […] generic MMP activity kit. To be noted: read-out: Inhibition [%] at 100 μM compound^[a] / 26 (phosphonate). The class given is biochemical.
Turning to `CC(=O)c1ccc(NC(=O)CP(=O)(O)O)cc1` [compound 26, Disodium (2-((4-acetylphenyl)amino)-2-oxoethyl)phosphonate], the inhibition at 100 µM came out at 36 ± 1%.

The next experiment deals with T2, HDAC-8 (Homo sapiens, UniProt Q9BY41).
T2 construct: gene HDAC8
T2 sequence (Q9BY41 1-377): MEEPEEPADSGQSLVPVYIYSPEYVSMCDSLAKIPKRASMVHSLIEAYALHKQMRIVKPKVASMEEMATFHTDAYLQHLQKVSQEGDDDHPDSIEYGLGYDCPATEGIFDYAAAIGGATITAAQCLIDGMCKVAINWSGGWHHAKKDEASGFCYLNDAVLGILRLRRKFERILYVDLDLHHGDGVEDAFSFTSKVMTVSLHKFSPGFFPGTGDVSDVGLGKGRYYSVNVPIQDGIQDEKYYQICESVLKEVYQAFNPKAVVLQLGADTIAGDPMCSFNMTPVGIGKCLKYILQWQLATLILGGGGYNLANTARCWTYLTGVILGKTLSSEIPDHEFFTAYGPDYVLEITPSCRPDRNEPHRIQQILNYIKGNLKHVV
The experiment can be described thus: fluorescence inhibitor screening kit. The class given is biochemical. Particulars: read-out: Inhibition [%] at 100 μM compound^[a] / 5 a (thiol). The source says: fluorescence inhibitor screening kit on HDAC-8
Consider `CC(=O)c1ccc(NC(=O)CS)cc1` [5a, thiol 5 a], for which the inhibition at 100 µM worked out at 48 ± 5%.

The target in a further experiment is T3, MMP-14 (Homo sapiens, UniProt P50281).
T3 construct: gene MMP14; catalytic domain, AnaSpec
The experiment can be described thus: SensoLyte […] generic MMP activity kit. The class given is biochemical. To be noted: read-out: Inhibition [%] at 100 μM compound^[a] / 26 (phosphonate).
Turning to `CC(=O)c1ccc(NC(=O)CP(=O)(O)O)cc1` [compound 26, Disodium (2-((4-acetylphenyl)amino)-2-oxoethyl)phosphonate], the inhibition at 100 µM was 47 ± 13%.

The target in another experiment is T4, HDAC-3 (Homo sapiens, UniProt O15379).
T4 construct: gene HDAC3
T4 sequence (O15379 whole entry): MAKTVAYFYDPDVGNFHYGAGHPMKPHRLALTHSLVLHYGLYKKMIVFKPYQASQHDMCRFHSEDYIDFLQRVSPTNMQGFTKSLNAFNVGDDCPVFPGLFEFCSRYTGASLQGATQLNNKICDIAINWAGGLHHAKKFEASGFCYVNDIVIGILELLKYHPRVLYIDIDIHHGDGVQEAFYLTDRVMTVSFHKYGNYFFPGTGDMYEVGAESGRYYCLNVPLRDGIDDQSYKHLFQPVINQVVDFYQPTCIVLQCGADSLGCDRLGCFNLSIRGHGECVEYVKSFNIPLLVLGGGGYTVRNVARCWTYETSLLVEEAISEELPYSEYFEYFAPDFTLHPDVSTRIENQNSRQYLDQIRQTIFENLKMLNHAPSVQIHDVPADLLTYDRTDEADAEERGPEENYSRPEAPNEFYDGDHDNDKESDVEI
The experiment can be described thus: fluorescence inhibitor screening kit. To be noted: read-out: Inhibition [%] at 100 μM compound^[a] / 5 a (thiol). The class given is biochemical. An excerpt:
fluorescence inhibitor screening kit on HDAC-3
With `CC(=O)c1ccc(NC(=O)CS)cc1` [5a, thiol 5 a], the inhibition at 100 µM turned out to be 51 ± 7%.

For another experiment, the target named is ColH-PD (peptidase domain of collagenase H) (Hathewaya histolytica, UniProt Q46085). The experiment can be described thus: biochemical.
ColH-PD (peptidase domain of collagenase H), sequence (Q46085 331-721 limits assumed): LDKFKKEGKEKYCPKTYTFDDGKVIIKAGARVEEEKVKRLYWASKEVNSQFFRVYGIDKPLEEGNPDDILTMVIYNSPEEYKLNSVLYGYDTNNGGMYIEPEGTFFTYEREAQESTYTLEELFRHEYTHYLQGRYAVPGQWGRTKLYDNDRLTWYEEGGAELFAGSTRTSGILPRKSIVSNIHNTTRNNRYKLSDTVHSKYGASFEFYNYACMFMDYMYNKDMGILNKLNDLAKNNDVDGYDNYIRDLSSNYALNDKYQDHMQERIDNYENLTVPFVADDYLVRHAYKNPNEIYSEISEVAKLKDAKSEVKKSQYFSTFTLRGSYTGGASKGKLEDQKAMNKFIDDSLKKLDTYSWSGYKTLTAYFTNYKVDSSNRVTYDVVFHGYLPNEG
Details: not given
In turn, `CC(=O)c1ccc(NC(=O)CC#N)cc1` [compound 23, N-(4-Acetylphenyl)-2-cyanoacetamide] gave a 50% inhibitory concentration (IC50) above 500 µM. Compound `CC(=O)c1ccc(NC(=O)Cc2nn[nH]n2)cc1` [compound 19, N-(4-Acetylphenyl)-2-(2H-tetrazol-5-yl)acetamide] showed an IC50 of 22 ± 1 µM. Still for that read-out and setting: as for `NC(=O)CC(=O)Nc1ccccc1` [compound 8, N^1-Phenylmalonamide], the figure is above 500 µM.

In the case of `O=C(O)CCC(=O)Nc1ccccc1` [compound 10, 4-Oxo-4-(phenylamino)butanoic acid], the IC50 is above 500 µM.

Compound `CC(=O)c1ccc(NC(=O)Cn2ccnc2)cc1` [compound 15, N-(4-Acetylphenyl)-2-(1H-imidazol-1-yl)acetamide] showed an IC50 of 448 ± 33 µM. Same read-out and setting: in the case of `O=C(O)CC(=O)Nc1ccccc1` [compound 9, 3-Oxo-3-(phenylamino)propanoic acid] it was above 500 µM. `CCOP(C)(=O)CC(=O)Nc1ccc(C(C)=O)cc1` (centres unmarked) [compound 27, Ethyl (2-((4-acetylphenyl)amino)-2-oxoethyl)(methyl)phosphinate] had an IC50 above 500 µM.

In the case of `CC(=O)c1ccc(NC(=O)CP(C)(=O)O)cc1` [compound 25, Sodium (2-((4-acetylphenyl)amino)-2-oxoethyl)(methyl)phosphinate], the IC50 was above 500 µM. `CC(=O)c1ccc(NC(=O)Cc2c[nH]cn2)cc1` [compound 20, N-(4-Acetylphenyl)-2-(1H-imidazol-4-yl)acetamide] yielded an IC50 above 500 µM. In turn, `O=C(CC(=O)Nc1ccccc1)NO` [compound 11, N^1-Hydroxy-N^3-phenylmalonamide] had an IC50 of around 500 µM. `CC(=O)c1ccc(NC(=O)Cn2cnnn2)cc1` [compound 17, N-(4-Acetylphenyl)-2-(1H-tetrazol-1-yl)acetamide] had a 50% inhibitory concentration (IC50) above 500 µM. The same measure, in the same setting: as for `CC(=O)c1ccc(NC(=O)Cn2ccnn2)cc1` [compound 14, N-(4-Acetylphenyl)-2-(1H-1,2,3-triazol-1-yl)acetamide], the figure is above 500 µM. Same read-out and setting: in the case of `CC(=O)c1ccc(NC(=O)Cn2cncn2)cc1` [compound 16, N-(4-Acetylphenyl)-2-(1H-1,2,4-triazol-1-yl)acetamide] it was above 500 µM; in that of `CC(=O)c1ccc(NC(=O)Cn2ncnn2)cc1` [compound 18, N-(4-acetylphenyl)-2-(2H-tetrazol-2-yl)acetamide], above 500 µM; in that of `CC(=O)c1ccc(NC(=O)CS(=O)(=O)O)cc1` [compound 24, Sodium 2-((4-acetylphenyl)amino)-2-oxoethane-1-sulfonate], above 500 µM.

Still in this experiment, the particulars now being: read-out: IC50.
On to `CC(=O)c1ccc(NC(=O)CP(=O)(O)O)cc1` [compound 26, Disodium (2-((4-acetylphenyl)amino)-2-oxoethyl)phosphonate], for which the half-inhibitory concentration (IC50) amounted to 7 ± 1 µM.
